In article PMC8742957, “Functional signaling test identifies HER2 negative breast cancer patients who may benefit from c-Met and pan-HER combination therapy” (Cell Communication and Signaling : CCS, 2022):
Like-named read-outs stand apart in the source and are kept apart here. One block for each molecule: values may come before it.

Assays:
[1] = tested on: HER-family receptors; assay: CELsignia real-time live cell IC50 titration of pan-HER inhibitors against NRG1b/EGF stimulation, primary breast cancer cells; type: cell-based, human; conditions: six primary breast cancer cell samples with hyperactive HER- and c-Met signaling; inhibitor 18 h before NRG1b/EGF; Poziotinib three, Tucatinib five samples
Procedure: Owing to limited numbers of non-passaged or low passaged primary cells, 1000-fold, five-point dose response for antagonists to HER-family and c-Met receptors was performed for each corresponding agonist stimulus (i.e. NRG1b/EGF for HER-family activation and HGF for c-Met activation) in a live-cell CELsignia assay and the observed values were averaged. Drug additions were made 18 h prior to agonist addition. The measurand recording period of four hours began after the agonist addition. Response was plotted as a percent of the maximum response to the agonist observed in the absence of any antagonist using GraphPad Prism software and IC50 values were derived using non-linear regression.
A representative dose–response curve of cells from patient R66 to stimulation with NRG1b/EGF following pre-treatment with the indicated antagonists is shown in Fig. 4a. A total of six primary cell lines isolated from as many patients were included in this IC50 titration test and the average values are summarized in Table 1. The IC50 values for pan-HER antagonists against NRG1b/EGF stimulation determined from our real-time live cell assay align with what was previously reported in cell-free assays.

[2] = tested on: HER/c-met signaling in HCC1954 cells; assay: CELsignia analysis of HCC1954 cells, antagonists against cocktail of agonists (NRG, EGF, HGF); type: cell-based, human; conditions: cocktail NRG 3 nM, EGF 0.3 nM, HGF 50 pM, errors are standard deviation
Procedure: During the combined drug testing, we investigated the benefit of targeting HER1 specifically in combination with c-Met.
2.5 3x GF (N RG 3 n M, E G F 0. 3 nM , HG F 50 p M)
Fig. S6: Impedance time course example for antagonist effects on a cocktail of agonists
(NRG, EGF and HGF) for HCC1954 used to derive data in Table 7 (N of 4 experiments).
Also included on the plot timecourse are cells only (HSSM, red line) untreated by agonist

[3] = tested on: HCC1954 xenograft; conditions: NSG mice; for Tumor reduction, drug arm versus control: oral gavage QD 21 doses, Neratinib 40, Tepotinib 50, Erlotinib 25 mg/kg
Procedure: A selection of an appropriate cell line was necessary owing greatly to the limited commercially available tumorigenic breast cancer mouse models with the abnormal signaling function of interest to this study. Female NSG (NOD SCID gamma; NOD.Cg-Prkdc^scid Il2rg^tm1Wjl/SzJ) mice were procured from Jackson Labs (Bar Harbor, Maine, USA). The mice were injected in their fat pad with HCC1954 cells dissolved in 150 µL of a 50% Matrigel solution. Tumors were allowed to form until they reached a minimum average size of 150 mm^3. At this time, the tumor bearing cohort was divided up into 10-mouse treatment groups of uniform distribution of tumor sizes, just prior to initiating treatment. Tumor size and body weights were measured a minimum of twice per week. Upon completion of the study period, the mice were euthanized for necropsy and sample/tissue collection at the study endpoint or when tumor size reached ≥ 2 cm^3.
Female NSG mice, 4–5 weeks old, were injected subcutaneously in the left mammary fat pad with two million HCC1954 cells. After the average tumor volume reached 150 mm^3 the mice were randomly assigned into six cohorts of 10 mice each (n = 10). Each of the experimental mice were dosed by oral gavage with 100 µL dosing solution daily (QD) for 21 days (21 doses). […] In order to determine the effects of the pan-HER and c-Met antagonists on tumor size, the tumor volume (in mm^3) was measured and plotted as shown in Fig. 8b.

[4] = biological target: T1, c-Met (Homo sapiens, UniProt P08581); assay: Cross-talk analysis, inhibition of HGF signal in patient primary tumor cells (CELsignia); conditions: HGF 50 pM, Erlotinib 500 nM, Tucatinib 250 nM, Tepotinib 50 nM, four-hour period
[5] = tested on: BT-474 cells; assay: Flow cytometry of cell toxicity markers, BT-474, 72 h; type: cell-based, human; conditions: neratinib and/or tepotinib
Procedure: For analysis of cell toxicity, single cell suspensions were stained with TMRE (200 nM for 30 min), washed with FACS buffer, and stained with Annexin V-AlexaFluor647 (Biolegend; San Diego, CA) following the manufacturers’ instructions. The TMRE/Annexin V stained cells were resuspended in FACS buffer containing Sytox Blue (Thermo Fisher; Waltham, MA) and analyzed on a Novocyte 3000 FACS instrument and NovoExpress software (Agilent; Santa Clara, CA). For analysis of intracellular phosphoproteins by FACS, cells were stained using a Live/Dead fixable dye (Zombie NIR; BioLegend), fixed using 1.6% paraformaldehyde, permeabilized with cold-methanol, and then stained using antibodies towards AKT-pS473 (Cell Signaling Technology; Danvers, MA) and FAK-pS910 (BD Biosciences) (Table S2) prior to FACS analysis. […]
marker resistance to prolonged drug treatment – Normal signaling cell line, BT474. BT-474 […]
These cell lines were treated with neratinib […]
(§1) cytometry for cell death using Sytox Blue, apoptosis marker annexin V, and mitochondrial potential by TMRE staining. Flow cytometry histogram plots are representative of at least two […]
(§2) according to these markers.
(§3) (1 picture or pasted object on this page, not shown here)

[6] = tested on: A549 cells; assay: Flow cytometry of cell toxicity markers, A549, 72 h; type: cell-based, human; conditions: neratinib and/or tepotinib
Procedure: For analysis of cell toxicity, single cell suspensions were stained with TMRE (200 nM for 30 min), washed with FACS buffer, and stained with Annexin V-AlexaFluor647 (Biolegend; San Diego, CA) following the manufacturers’ instructions. The TMRE/Annexin V stained cells were resuspended in FACS buffer containing Sytox Blue (Thermo Fisher; Waltham, MA) and analyzed on a Novocyte 3000 FACS instrument and NovoExpress software (Agilent; Santa Clara, CA). […]
marker resistance to prolonged drug treatment – Normal signaling cell line, A549. A549 cell […]
A549 cells were treated with neratinib […]
as §1, §2, §3

[7] = tested on: HER-family (EGF stimulation); assay: Impedance test IC50 with single growth factor EGF (set-up of median effects, HCC1954); type: cell-based, human; conditions: neratinib + EGF
Excerpt: Fig. S5: Median effects plots.
EGF on HCC1954. When CI>1,
and Talalay. CI<1 is indicative of synergy. C) Antagonist median effects plot of patient sample
indicative of additivity; CI<1 is indicative of synergy.

[8] = tested on: BT-20 cells; assay: Flow cytometry of cell toxicity markers, BT-20; type: cell-based, human; conditions: 250 nM, singly or in combination, 16h
Procedure: (§4) For analysis of cell toxicity, single cell suspensions were stained with TMRE (200 nM for 30 min), washed with FACS buffer, and stained with Annexin V-AlexaFluor647 (Biolegend; San Diego, CA) following the manufacturers’ instructions. The TMRE/Annexin V stained cells were resuspended in FACS buffer containing Sytox Blue (Thermo Fisher; Waltham, MA) and analyzed on a Novocyte 3000 FACS instrument and NovoExpress software (Agilent; Santa Clara, CA). For analysis of intracellular phosphoproteins by FACS, cells were stained using a Live/Dead fixable dye (Zombie NIR; BioLegend), fixed using 1.6% paraformaldehyde, permeabilized with cold-methanol, and then stained using antibodies towards AKT-pS473 (Cell Signaling Technology; Danvers, MA) and FAK-pS910 (BD Biosciences) (Table S2) prior to FACS analysis.
Figure S7. CELsignia test is more sensitive and rapid for detecting anti-cancer drug efficacy compared to biological correlates – Normal signaling cell line, BT-20. BT-20 cells were normal signaling for HER and c-Met by the CELsignia test. To test flow cytometry markers for correlation a test was setup following the dose and time parameters used for the CELsignia test. The cells […]
(250 nM) and neratinib (250 nM), either singly or in combination, as indicated. Cells were harvested and then analyzed by flow cytometry for the markers shown following a period of 16h […]
as §3
Figure S9. CELsignia test is more sensitive and rapid for detecting anti-cancer drug efficacy compared to biological correlates – Normal signaling cell line, BT20 continued. BT-20 cells […]
Figure S11. CELsignia test is more sensitive and rapid for detecting anti-cancer drug efficacy compared to biological correlates – Normal signaling cell line, BT-20 continued. BT-20 cells

[9] = tested on: HER-family and c-Met receptors; assay: CELsignia inhibition of combined NRG/EGF/HGF cocktail signal, patient breast cancer cells; type: cell-based, human; conditions: patient C135; Neratinib 500 nM, tepotinib 50 nM; compared to growth factor only well
Procedure: To simulate this multiplexed perturbant condition and test the ability of the different targeted drugs to attenuate abnormal signaling from multiplexed agonists, patient breast cancer cells were stimulated with a growth factor cocktail of EGF, NRG1b, and HGF (N/E/H) to simultaneously initiate signaling via the HER-family and c-Met receptors. […] Cell index signaling units were calculated relative to the baseline values obtained from cells that were not treated with either agonists or antagonists.

[10] = tested on: MDA-MB-231 cells; assay: Flow cytometry of cell toxicity markers, MDA-MB-231; type: cell-based, human; conditions: 250 nM, singly or in combination, 16h
Procedure: as §4
Figure S8. CELsignia test is more sensitive and rapid for detecting anti-cancer drug efficacy compared to biological correlates – Normal signaling cell line, MDA-MB-231. MDA-MB-231 cells were normal signaling for HER and c-Met by the CELsignia test. To test flow cytometry markers for correlation a test was setup following the dose and time parameters used for the CELsignia test. The cells were seeded in collagen-fibrinogen (CF) coated culture plates and treated […]
indicated. Cells were harvested and then analyzed by flow cytometry for the markers shown following a period of 16h drug treatment. […]
these drugs according to the Sytox blue marker.
as §3
Figure S10. CELsignia test is more sensitive and rapid for detecting anti-cancer drug efficacy compared to biological correlates – Normal signaling cell line, MDA-MB-231 continued.
MDA-MB-231 cells were seeded in collagen-fibrinogen (CF) coated culture plates and treated 6h […]
Cells were harvested and then analyzed by flow cytometry for the markers shown following a period of 16h drug treatment. […]
according to annexin V marker.
Figure S12. CELsignia test is more sensitive and rapid for detecting anti-cancer drug efficacy […]
according to TMRE marker.

[11] = tested on: AKT-pS473 and FAK-pS910 in HCC1954 cells; assay: Intracellular phospho-flow cytometry of AKT-pS473 and FAK-pS910, HCC1954; type: cell-based, human; conditions: 16 h
[12] = biological target: T1, c-Met; assay: cell-based
[13] = read-out: Percent inhibition of growth factor signal, patient C753
[14] = read-out: Percent inhibition of growth factor signal, patient C1061
[15] = read-out: Percent inhibition of growth factor signal, patient R66

T1 sequence (P08581 25-1390): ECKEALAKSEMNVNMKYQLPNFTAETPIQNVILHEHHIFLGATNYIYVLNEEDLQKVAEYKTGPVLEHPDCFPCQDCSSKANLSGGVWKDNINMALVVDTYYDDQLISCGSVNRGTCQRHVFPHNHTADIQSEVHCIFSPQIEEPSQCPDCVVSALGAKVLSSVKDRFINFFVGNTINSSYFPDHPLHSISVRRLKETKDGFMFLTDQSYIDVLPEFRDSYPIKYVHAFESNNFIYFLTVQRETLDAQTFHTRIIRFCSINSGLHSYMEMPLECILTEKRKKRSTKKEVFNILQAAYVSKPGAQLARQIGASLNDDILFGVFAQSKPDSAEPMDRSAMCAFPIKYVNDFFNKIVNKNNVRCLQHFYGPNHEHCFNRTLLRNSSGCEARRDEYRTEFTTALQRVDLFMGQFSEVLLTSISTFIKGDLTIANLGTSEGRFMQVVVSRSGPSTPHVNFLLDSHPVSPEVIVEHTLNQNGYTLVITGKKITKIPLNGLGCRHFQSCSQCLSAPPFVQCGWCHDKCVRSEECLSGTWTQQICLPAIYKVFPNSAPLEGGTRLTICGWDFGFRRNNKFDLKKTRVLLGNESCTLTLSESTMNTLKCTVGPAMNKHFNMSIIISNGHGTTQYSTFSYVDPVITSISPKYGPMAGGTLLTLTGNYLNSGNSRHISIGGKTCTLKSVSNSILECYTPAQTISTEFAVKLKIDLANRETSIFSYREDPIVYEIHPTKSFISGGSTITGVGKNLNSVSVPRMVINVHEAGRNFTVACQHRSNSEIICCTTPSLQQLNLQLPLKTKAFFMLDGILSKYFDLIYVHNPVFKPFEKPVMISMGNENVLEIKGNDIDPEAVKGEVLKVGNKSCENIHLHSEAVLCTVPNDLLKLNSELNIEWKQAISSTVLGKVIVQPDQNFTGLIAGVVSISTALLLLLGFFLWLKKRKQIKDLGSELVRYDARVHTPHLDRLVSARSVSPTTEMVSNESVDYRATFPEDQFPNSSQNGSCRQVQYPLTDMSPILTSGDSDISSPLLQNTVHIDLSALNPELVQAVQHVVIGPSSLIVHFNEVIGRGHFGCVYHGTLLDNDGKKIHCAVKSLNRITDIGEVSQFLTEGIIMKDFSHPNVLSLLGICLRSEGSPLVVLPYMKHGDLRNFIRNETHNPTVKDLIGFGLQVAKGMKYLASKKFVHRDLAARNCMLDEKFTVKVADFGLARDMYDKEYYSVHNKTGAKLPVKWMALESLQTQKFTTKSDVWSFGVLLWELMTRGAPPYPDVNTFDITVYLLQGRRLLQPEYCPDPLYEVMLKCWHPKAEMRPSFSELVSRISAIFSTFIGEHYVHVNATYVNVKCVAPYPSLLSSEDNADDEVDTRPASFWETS

Compound: COc1cc2ncnc(Nc3ccc(F)c(Cl)c3)c2cc1NC(=O)/C=C/CN1CCCCC1 [Dacomitinib]
IC50 [1]: 22.1 nM

Compound: C#Cc1cccc(Nc2ncnc3cc(OCCOC)c(OCCOC)cc23)c1 [Erlotinib]
HER/c-met inhibition (%) [2]: 9.2 ± 10.3 (n = 2) %
Tumor reduction, drug arm versus control [3]: 5% (p = 0.870)
inhibition at 0.5 µM [4, 13]: 15%
inhibition at 0.5 µM [4, 14]: 7%
inhibition at 0.5 µM [4, 15]: 38%

Compound: C=CC(=O)N1CCC[C@@H](n2nc(-c3ccc(Oc4ccccc4)cc3)c3c(N)ncnc32)C1 [Ibrutinib]
IC50 [1]: 13.1 nM

Compound: CS(=O)(=O)CCNCc1ccc(-c2ccc3ncnc(Nc4ccc(OCc5cccc(F)c5)c(Cl)c4)c3c2)o1 [Lapatinib]
IC50 [1]: 137 nM

Compound: CCOc1cc2ncc(C#N)c(Nc3ccc(OCc4ccccn4)c(Cl)c3)c2cc1NC(=O)/C=C/CN(C)C [Neratinib]
Response according to Sytox Blue, annexin V and TMRE markers [5]: do not respond
HER/c-met inhibition (%) [2]: 14.6 ± 29.6 (n = 4) %
Response according to Sytox Blue, annexin V and TMRE markers [6]: do not respond
IC50 [7]: 15 nM
Response according to TMRE marker [8]: do not respond
Response according to annexin V marker [8]: do not respond
Response according to the Sytox blue marker [8]: do not respond
Order of efficacy against response to simultaneous NRG, EGF and HGF [9]: more efficacious
Tumor reduction, drug arm versus control [3]: 54% (p = 0.003)
Tumor reduction, drug arm versus control ([3]; listed as neratinib): 54%
Response according to TMRE marker [10]: do not respond
Response according to annexin V marker [10]: do not respond
Response according to the Sytox blue marker [10]: do not respond
IC50 [1]: 4.81 nM
distribution of pFAK high cells [11]: not significantly altered
frequency of pAKT high cells ([11]; singly and in combination with tepotinib): dose-dependent decline

Compound: CN1CCC(COc2cnc(-c3cccc(Cn4nc(-c5cccc(C#N)c5)ccc4=O)c3)nc2)CC1 [Tepotinib]
Response according to Sytox Blue, annexin V and TMRE markers [5]: do not respond
Response according to Sytox Blue, annexin V and TMRE markers [6]: do not respond
Response according to TMRE marker [8]: do not respond
Response according to annexin V marker [8]: do not respond
Response according to the Sytox blue marker [8]: do not respond
Tumor reduction, drug arm versus control [3]: 10% (p = 0.780)
Adverse observations in treated cohort ([3]; oral gavage QD, Tepotinib 50 mg/kg, Neratinib + Tepotinib 40 + 50 mg/kg): ^#Due to weight loss, 1 mouse given 3 day dose holiday due, and 1 mouse given 7 day dose holiday
Response according to TMRE marker [10]: do not respond
Response according to annexin V marker [10]: do not respond
Response according to the Sytox blue marker [10]: do not respond
effect on pFAK and pAKT population distributions ([11]; single agent): no detectable dose-dependent effect

The next lines start with the values.

IC50 [1]: 1.23 nM
Compound: C=CC(=O)N1CCC(Oc2cc3c(Nc4ccc(Cl)c(Cl)c4F)ncnc3cc2OC)CC1 [Poziotinib]

IC50 [1]: 41.3 nM
Compound: CNC(=O)CN1CCC(Oc2cc3c(Nc4cccc(Cl)c4F)ncnc3cc2OC)CC1 [Sapitinib]

IC50 [12]: 3.56 nM
Compound: C[C@@H](c1ccc2nccn2c1)n1nnc2ncc(-c3cnn(C)c3)nc21 [Savolitinib]

IC50 [1]: 333 nM
inhibition at 0.25 µM [4, 13]: -6%
inhibition at 0.25 µM [4, 14]: -13%
inhibition at 0.25 µM [4, 15]: 25%
Compound: Cc1cc(Nc2ncnc3ccc(NC4=NC(C)(C)CO4)cc23)ccc1Oc1ccn2ncnc2c1 [Tucatinib]
